Patent US11787825B2 (priority 2021, dated 2023)
≈ marks a conversion by molar mass, not a printed value. Like-named read-outs stand apart in the source and are kept apart here. Marks after values point to notes of the source that are not given here.

Tests used:
[1] = physchem; conditions: 25 °C, thermodynamic from solid
[2] = Beagle, in vivo, po; for Dog F % (suspension): pH 2
[3] = 0.1N HCL, 1.0% DMSO, 24-hour incubation at ambient temperature, maximum theoretical compound concentration 100 μM
[4] = 1×PBS buffer (pH 7.4), 1.0% DMSO, 24-hour incubation at ambient temperature, maximum theoretical compound concentration 100 μM
[5] = fasted state simulated intestinal fluid (FaSSIF), fassif
[6] = fed state simulated intestinal fluid (FeSSIF), fessif

Compound | pH 2 solubility [3] | pH 7 solubility [4] | solubility [1, 5] | solubility [1, 6] | Dog F % (solution) [2] | pH 2 solubility (pH 2) | pH 7 solubility (pH 7.4) | solubility ([1]; fassif) | solubility ([1]; fessif) | Dog F % (suspension) [2]
CC(C)(C#Cc1ccc(-c2ccc(Cl)c3c(N(C(=O)CCC(=O)OCOP(=O)(O)O)S(C)(=O)=O)nn(CC(F)(F)F)c23)c([C@H](Cc2cc(F)cc(F)c2)NC(=O)Cn2nc(C(F)(F)F)c3c2C(F)(F)[C@@H]2C[C@H]32)n1)S(C)(=O)=O [Compound 28, (phosphonooxy)methyl 4-(N-(4-chloro-7-(2-((S)-1-(2-((3bS,4aR)-5,5-difluoro-3-(trifluoromethyl)-3b,4,4a,5-tetrahydro-1H-cyclopropa[3,4]cyclopenta[1,2-c]pyrazol-1-yl)acetamido)-2-(3,5-difluorophenyl)ethyl)-6-(3-methyl-3-(methylsulfonyl)but-1-yn-1-yl)pyridin-3-yl)-1-(2,2,2-trifluoroethyl)-1H-indazol-3-yl)methylsulfonamido)-4-oxobutanoate] | 1 μM | 86 μM | 555 µg/mL (≈ 471 µM) | 319 µg/mL (≈ 271 µM) | 51^b % | – | – | – | – | –
CN(C(=O)N(c1nn(CC(F)(F)F)c2c(-c3ccc(C#CC(C)(C)S(C)(=O)=O)nc3[C@H](Cc3cc(F)cc(F)c3)NC(=O)Cn3nc(C(F)(F)F)c4c3C(F)(F)[C@@H]3C[C@H]43)ccc(Cl)c12)S(C)(=O)=O)c1ncccc1COP(=O)(O)O [Compound 53, (2-(3-(4-chloro-7-(2-((S)-1-(2-((3bS,4aR)-5,5-difluoro-3-(trifluoromethyl)-3b,4,4a,5-tetrahydro-1H-cyclopropa[3,4]cyclopenta[1,2-c]pyrazol-1-yl)acetamido)-2-(3,5-difluorophenyl)ethyl)-6-(3-methyl-3-(methylsulfonyl)but-1-yn-1-yl)pyridin-3-yl)-1-(2,2,2-trifluoroethyl)-1H-indazol-3-yl)-1-methyl-3-(methylsulfonyl)ureido)pyridin-3-yl)methyl dihydrogen phosphate] | – | – | – | – | – | 2/78 μM | 2/78 μM | 391 µg/mL | 958 µg/mL | 5%
CN(C(=O)N(c1nn(CC(F)(F)F)c2c(-c3ccc(C#CC(C)(C)S(C)(=O)=O)nc3[C@H](Cc3cc(F)cc(F)c3)NC(=O)Cn3nc(C(F)(F)F)c4c3C(F)(F)[C@@H]3C[C@H]43)ccc(Cl)c12)S(C)(=O)=O)c1ncccc1CN(CC(=O)O)C(=O)OCOP(=O)(O)O [Compound 52, N-((2-(3-(4-chloro-7-(2-((S)-1-(2-((3bS,4aR)-5,5-difluoro-3-(trifluoromethyl)-3b,4,4a,5-tetrahydro-1H-cyclopropa[3,4]cyclopenta[1,2-c]pyrazol-1-yl)acetamido)-2-(3,5-difluorophenyl)ethyl)-6-(3-methyl-3-(methylsulfonyl)but-1-yn-1-yl)pyridin-3-yl)-1-(2,2,2-trifluoroethyl)-1H-indazol-3-yl)-1-methyl-3-(methylsulfonyl)ureido)pyridin-3-yl)methyl)-N-(((phosphonooxy)methoxy)carbonyl)glycine] | 2 μM | 100 μM | 1370 µg/mL (≈ 1020 µM) | > 6260 µg/mL | – | – | – | – | – | 24%
CC(C)(Cc1ccccc1OP(=O)(O)O)C(=O)N(c1nn(CC(F)(F)F)c2c(-c3ccc(C#CC(C)(C)S(C)(=O)=O)nc3[C@H](Cc3cc(F)cc(F)c3)NC(=O)Cn3nc(C(F)(F)F)c4c3C(F)(F)[C@@H]3C[C@H]43)ccc(Cl)c12)S(C)(=O)=O [Compound 46, 2-(3-(N-(4-chloro-7-(2-((S)-1-(2-((3bS,4aR)-5,5-difluoro-3-(trifluoromethyl)-3b,4,4a,5-tetrahydro-1H-cyclopropa[3,4]cyclopenta[1,2-c]pyrazol-1-yl)acetamido)-2-(3,5-difluorophenyl)ethyl)-6-(3-methyl-3-(methylsulfonyl)but-1-yn-1-yl)pyridin-3-yl)-1-(2,2,2-trifluoroethyl)-1H-indazol-3-yl)methylsulfonamido)-2,2-dimethyl-3-oxopropyl)phenyl dihydrogen phosphate] | – | – | – | – | – | 1/66 μM | 1/66 μM | 700 µg/mL | > 2150 µg/mL | 10%
